Key:
[1] = as specified in Biochemical Pharmacology; cited from earlier work
platelet aggregation = settings: as described in Journal of Medicinal Chemistry; cited from earlier work
[2] = Phenylbenzoquinone test (analgesic activity); assay type: in vivo; settings: Mus musculus, 1 h; mice; oral, one hour before phenylbenzoquinone i.p.; 5 minutes observation; read-out: Phenylbenzoquinone test 50% inhibitory dose
Method: 2. Phenylbenzoquinone test
The intraperitoneal injection of phenylbenzoquinone causes twisting and stretching movements in mice. Analgesics prevent or reduce this syndrome, which can be considered as the exteriorization of diffuse abdominal pain.
A 0.02% solution of phenylbenzoquinone in water is administered in a volume of 1 ml/100 g.
The products of the Examples are administered orally one hour before the injection of phenylbenzoquinone.
The stretching and twisting movements are counted for each mouse over an observation period of 5 minutes.

[3] = biological target: T1, rat central A2 adenosinergic receptors (Rattus norvegicus, UniProt P30543); test: Binding to adenosine A2 receptors ([3H] NECA displacement); settings: [3H] NECA 4 nM, n=3; for inhibition at 10 µM: 1E-5M, read-out: % displacement of the labeled ligand, A2, 1E-5M; for inhibition at 0.1 µM: 1E-7M, read-out: % displacement of the labeled ligand, A2, 1E-7M
T1 construct: the striatum is removed from each of them (Bruns et al., 1986); from tissue; host or cells: rat striatum, homogenate (membrane preparation)
Method: (§1) The affinity of the products of the Examples for the rat central A1 and A2 adenosinergic receptors is determined by the competitive technique using a radioactive ligand specifically bound either to the A1 receptors ([^3 H] PIA) or to the A2 receptors ([^3 H] NECA).
Method of studying the A2 receptors Membrane preparation
After decapitation of the animal, the brain is quickly removed and washed in cold isotonic solution. The two hemispheres are separated and the striatum is removed from each of them (Bruns et al., 1986), weighed and introduced into a polyallomer tube containing 10 volumes of cold homogenization buffer. The tissue is homogenized with an Ultra-Turrax for 30 seconds (3 times 10 seconds with 10-second intervals, 70% of the maximum speed). The ground material is centrifuged at 50,000 g (≈20,500 rpm) for 10 minutes at 4° C.
The residue obtained is resuspended in 10 volumes of homogenization buffer using a Vortex and homogenized with the Ultra-Turrax (5 to 10 seconds, 70% of the maximum speed).
Adenosine deaminase is then added at a rate of 1 U/ml, i.e. 1 μl/ml of homogenate, using a 10 μl Hamilton syringe. The homogenate treated in this way is shaken at room temperature for 30 minutes.
When the incubation is complete, the homogenate is centrifuged at 50,000 g (≈20,500 rpm) for 10 minutes at 4° C.
The residue is taken up with 5 volumes of cold homogenization buffer and passed through the Ultra-Turrax (2 times 10 seconds with a 10-second interval, 70% of the maximum speed) and the homogenate prepared in this way is finally frozen at -70° C. Competitive test
After the homogenate has been thawed at room temperature, 15 volumes of incubation buffer are added. The homogenate is shaken on a Vortex, passed through a Potter mill (6 to-and-fro movements, speed 6), diluted to 1/10 in incubation buffer and finally placed in a water bath thermostated at 4° C., with shaking, until the end of the experiment.
(§2) 50 μl of [^3 H] NECA at 160 nM, i.e. 4 nM in the final reaction medium allowing for the 1/40 dilution, and 50 μl of the product of the Example at the concentrations considered (10^-5 M and 10^-7 M) are introduced into the reaction tubes. The reaction is initiated by the addition of 1 ml of homogenate and 900 μl of incubation buffer. The procedure is similar for all the compounds studied.
The tubes are shaken and incubated in a water bath at 25° C. for 60 minutes. When the incubation is complete, the contents of the tubes are filtered on Whatman GF/B paper. Each tube is washed twice with 2 ml of rinsing buffer and then the filters themselves are rinsed with 3 ml of this same buffer before being transferred to counting flasks.
10 ml of liquid scintillator (Ready Solv HP/b, Beckman) are added to all the flasks. These are shaken and stored in a refrigerator overnight. The radioactivity is determined in a liquid scintillation counter.
(§3) 3 tests are performed for each concentration studied. The non-specific binding of the [^3 H] NECA is determined by measuring the amount of radioactivity retained on the filter in the presence of 5 μM N-ethylcarboxamidoadenosine (NECA). The value of the non-specific binding is systematically subtracted from that of the tests.
(§4) The results are expressed for each product in the form of the percentage displacement (n=3) of the labeled radioligand at concentrations of 10^-5 M and 10^-7 M.

[4] = biological target: T2, rat central A1 adenosinergic receptors (Rattus norvegicus, UniProt P25099); test: Binding to adenosine A1 receptors ([3H] PIA displacement); settings: [3H] PIA 2.5 nM, n=3; for inhibition at 10 µM: 1E-5M, read-out: % displacement of the labeled ligand, A1, 1E-5M; for inhibition at 0.1 µM: 1E-7M, read-out: % displacement of the labeled ligand, A1, 1E-7M
T2 construct: After the animal has been sacrificed by decapitation, the brain is quickly removed and washed in cold isotonic solution; from tissue; host or cells: rat brain, membrane preparation from the two hemispheres
T2 sequence (P25099 1-326): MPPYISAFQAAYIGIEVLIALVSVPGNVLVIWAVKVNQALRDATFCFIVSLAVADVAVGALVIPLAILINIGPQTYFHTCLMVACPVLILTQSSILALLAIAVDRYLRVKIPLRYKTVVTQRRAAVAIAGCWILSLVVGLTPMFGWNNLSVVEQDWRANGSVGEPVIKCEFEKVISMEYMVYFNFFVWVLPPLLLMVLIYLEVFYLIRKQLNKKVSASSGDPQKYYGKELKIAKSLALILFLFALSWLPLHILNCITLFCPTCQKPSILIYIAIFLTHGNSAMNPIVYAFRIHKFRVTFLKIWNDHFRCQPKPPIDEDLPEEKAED
Method: as §1
After the animal has been sacrificed by decapitation, the brain is quickly removed and washed in cold isotonic solution. The two hemispheres are separated and weighed and each of them is introduced into a polyallomer tube containing 25 volumes of cold homogenization buffer. Homogenization is effected using an Ultra-Turrax for 30 seconds (3 times 10 seconds with 10-second intervals, 70% of the maximum speed). The ground material obtained is centrifuged at 1000 g (≈3000 rpm) for 10 minutes at 4° C.
The supernatant is centrifuged again at 48,000 g (≈20,000 rpm) for 20 minutes at 4° C.
When this step is complete, the residue is taken up with 4 volumes of homogenization buffer, resuspended using a Vortex and homogenized with the Ultra-Turrax. Adenosine deaminase is then added at a rate of 1 U/ml, i.e. 1 μl/ml of homogenate, using a 10 μl Hamilton syringe.
After this treatment, the homogenate is shaken for 30 minutes at room temperature and then centrifuged at […] (≈20,000 rpm) for 30 minutes at 4° C.
The residue obtained is resuspended in 10 volumes of homogenization buffer and passed through the Ultra-Turrax for 20 seconds (2 times 10 seconds with a 10-second interval, 70% of the maximum speed).
The homogenate prepared in this way is used for the competitive tests. It is kept at 4° C. if the studies take place the same day, or stored at -20° C. in the form of 10 ml aliquots.
After the homogenate has been thawed at room temperature, it is passed through a Potter mill (6 manual to-and-fro movements, speed 6), diluted to 2/5 in incubation buffer and placed in a water bath thermostated at 4° C., with shaking, until the end of the experiment.
as §2, with “H] PIA” for “H] NECA”, “at 100” for “at 160”, “i.e. 2.5” for “i.e. 4”, “considered ([…]” for “considered (10^-5”, “is identical” for “is similar”, “the […]” for “the compounds”
The tubes are shaken and incubated in a water bath at 20° C. for 30 minutes. When the incubation is complete, the contents of the tubes are filtered on Whatman GF/B paper. Each tube is washed twice with 2 ml of rinsing buffer and then the filters themselves are rinsed with 3 ml of this same buffer.
The filters are then transferred to counting flasks and 10 ml of liquid scintillator (Ready Solv HP/b, Beckman) are added.
After they have been shaken, the flasks are stored in a refrigerator overnight and the radio-activity is then determined in a liquid scintillation counter.
as §3, with “PIA” for “NECA”, “assessed” for “determined”, “10^-5 M phenylisopropyladenosine (PIA).” for “5 μM N-ethylcarboxamidoadenosine (NECA).”
as §4

T1 sequence (P30543 whole entry): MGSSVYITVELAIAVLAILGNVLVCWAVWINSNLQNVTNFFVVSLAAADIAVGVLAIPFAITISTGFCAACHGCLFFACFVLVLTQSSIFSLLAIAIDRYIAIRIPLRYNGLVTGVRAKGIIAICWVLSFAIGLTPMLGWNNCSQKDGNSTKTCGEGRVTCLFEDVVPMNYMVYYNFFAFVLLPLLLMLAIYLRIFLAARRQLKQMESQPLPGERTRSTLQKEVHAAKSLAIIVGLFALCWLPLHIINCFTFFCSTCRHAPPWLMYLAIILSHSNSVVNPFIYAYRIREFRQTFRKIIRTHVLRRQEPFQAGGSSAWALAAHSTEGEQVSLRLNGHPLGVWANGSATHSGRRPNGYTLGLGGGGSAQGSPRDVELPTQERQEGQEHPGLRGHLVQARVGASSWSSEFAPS

## COc1ccc2[nH]cc(CCNc3ncnc4c3ncn4[C@@H]3O[C@H](CO)[C@@H](O)[C@H]3O)c2c1 [derivative B]
[1]
  antilipolytic activity: antilipolytic activity

## OC[C@H]1O[C@@H](n2cnc3c(NCCc4c[nH]c5ccccc45)ncnc32)[C@H](O)[C@@H]1O [derivative A, N-6-[2-(indol-3-yl)ethyl]adenosine]
Platelet aggregation
  platelet aggregation inhibiting activity: platelet aggregation inhibiting activity

## Cc1ccc(Cn2cc(CCNc3ncnc4c3ncn4[C@@H]3O[C@H](C(=O)NC4CC4)[C@@H](O)[C@H]3O)c3ccccc32)cc1C [Example 67, β-D-Ribofuranuronamido-N-cyclopropyl-1-deoxy-1-[6-[[2-[1-(3,4-dimethylbenzyl)indol-3-yl]ethyl]amino]-9H-purin-9-yl]]
[2]
  ED50: 3 mg/kg
[3]
  inhibition at 10 µM: 83%
  inhibition at 0.1 µM: 13%
[4]
  inhibition at 10 µM: 96%
  inhibition at 0.1 µM: 29%

## Cc1ccc(Cn2cc(CCNc3ncnc4c3ncn4[C@@H]3O[C@H](C(=O)NC4CC4)[C@@H](O)[C@H]3O)c3ccccc32)cc1 [Example 66, β-D-Ribofuranuronamido-N-cyclopropyl-1-deoxy-1-[6-[[2-[1-(4-methylbenzyl)indol-3-yl]ethyl]amino]-9H-purin-9-yl]]
[2]
  ED50: 3 mg/kg
[3]
  inhibition at 10 µM: 89%
  inhibition at 0.1 µM: 21%
[4]
  inhibition at 10 µM: 97%
  inhibition at 0.1 µM: 37%

## Cc1ccc(C)c(Cn2cc(CCNc3ncnc4c3ncn4[C@@H]3O[C@H](C(=O)NC4CC4)[C@@H](O)[C@H]3O)c3ccccc32)c1 [Example 68, β-D-Ribofuranuronamido-N-cyclopropyl-1-deoxy-1-[6-[[2-[1-(2,5-dimethylbenzyl)indol-3-yl]ethyl]amino]-9H-purin-9-yl]]
[2]
  ED50: 2.4 mg/kg
[3]
  inhibition at 10 µM: 84%
  inhibition at 0.1 µM: 9%
[4]
  inhibition at 10 µM: 93%
  inhibition at 0.1 µM: 26%

## O=C(NC1CC1)[C@H]1O[C@@H](n2cnc3c(NCCc4cn(C5CCCC5)c5ccccc45)ncnc32)[C@H](O)[C@@H]1O [Example 64, β-D-Ribofuranuronamido-1-[6-[[2-[1-cyclopentylindol-3-yl]ethyl]amino]-9H-purin-9-yl]-N-cyclopropyl-1-deoxy]
[2]
  ED50: 0.3 mg/kg
[3]
  inhibition at 10 µM: 90%
  inhibition at 0.1 µM: 28%
[4]
  inhibition at 10 µM: 96%
  inhibition at 0.1 µM: 21%

## Cc1ccc(C)c(Cn2c(C)c(CCNc3ncnc4c3ncn4[C@@H]3O[C@H](C(=O)NC4CC4)[C@@H](O)[C@H]3O)c3ccccc32)c1 [Example 87, β-D-Ribofuranuronamido-N-cyclopropyl-1-deoxy-1-[6-[[2-[1-(2,5-dimethylbenzyl)-2-methylindol-3-yl]ethyl]amino]-9H-purin-9-yl]]
[2]
  ED50: 1.2 mg/kg
[3]
  inhibition at 10 µM: 60%
  inhibition at 0.1 µM: 7%
[4]
  inhibition at 10 µM: 56%
  inhibition at 0.1 µM: 5%

## Cc1ccc(C)c(Cn2cc(CCNc3ncnc4c3ncn4[C@@H]3O[C@H](C(=O)NC4CC4)[C@@H](O)[C@H]3O)c3cc(C)ccc32)c1 [Example 85, β-D-Ribofuranuronamido-N-cyclopropyl-1-deoxy-1-[6-[[2-[1-(2,5-dimethylbenzyl)-5-methylindol-3-yl]ethyl]amino]-9H-purin-9-yl]]
[2]
  ED50: 0.9 mg/kg
[3]
  inhibition at 10 µM: 71%
  inhibition at 0.1 µM: 3%
[4]
  inhibition at 10 µM: 100%
  inhibition at 0.1 µM: 50%

## O=C(NC1CC1)[C@H]1O[C@@H](n2cnc3c(NCCc4cn(Cc5ccc(Cl)cc5)c5ccccc45)ncnc32)[C@H](O)[C@@H]1O [Example 61, β-D-Ribofuranuronamido-1-[6-[[2-[1-(4-chlorobenzyl)indol-3-yl]ethyl]amino]-9H-purin-9-yl]-N-cyclopropyl-1-deoxy]
[2]
  ED50: 0.9 mg/kg
[3]
  inhibition at 10 µM: 91%
  inhibition at 0.1 µM: 30%
[4]
  inhibition at 10 µM: 98%
  inhibition at 0.1 µM: 47%
